The IC50 is the concentration that inhibits the measured activity by half. As a reminder, the GI50 is the concentration giving 50% growth inhibition.

Holding throughout (type): cell-based
For one assay, the system named is COR-L105. Briefly: CellTiter-Glo proliferation assay, COR-L105. The settings on record: Homo sapiens, COR-L105, 120 h, COR-L105, 5 days; for Emax: read-out: COR-L105 Span (max). As to the method: (§1) The BCL-xL degrader compounds were tested against two endogenous cancer cell lines: • COR-L105: ECACC No. 92031918 cultured in RPMI-1640+10% FBS • NCI-H1650: (ATCC No. CRL-5883 cultured in RPMI-1640+10% FBS
(§2) The ability of the BCL-xL degrader low molecular weight compounds to inhibit cell proliferation and survival was assessed using the Promega CellTiter-Glo® proliferation assay.
(§3) Cell lines were cultured in media that is optimal for their growth at 5% CO2, 37° C. in a tissue culture incubator. Prior to seeding for the proliferation assay, the cells were split at least 2 days before the assay to ensure optimal growth density. On the day of seeding, adherent cells were lifted off tissue culture flasks using 0.25% trypsin. Cell viability and cell density were determined using a cell counter (Vi-Cell XR Cell Viability Analyzer, Beckman Coulter). Cells with higher than 85% viability were seeded for the assay.
(§4) The COR-105 cell line was seeded in white, clear bottom 384-well TC treated plates (Corning cat. #3765). Cells were seeded at a density of 1,000 cells per well in 45 μL of standard growth media. Plates were incubated at 5% CO2, 37° C. overnight in a tissue culture incubator. The NCI-H1650 cell line was seeded in black, clear round bottom 384-well ultra-low attachment spheroid microplates (Corning cat. #3830). Cells were seeded at a density of 3,000 cells per well in 45 uL of standard growth media. Plates were spun in a centrifuge for 5 minutes and 1,000 RPM. Plates were incubated at 5% CO2, 37° C. for 72 hours in a tissue culture incubator.
(§5) On the day of dosing, BCL-xL degrader low molecular weight compounds were prepared at 1 OX in standard growth media. The prepared drug treatments were then added to the cells resulting in final concentrations of 0.508 nM-10 μM and a final volume of 50 μL per well. Each drug concentration was tested in quadruplets. Plates were incubated at 5% CO2, 37° C. for 5 days in a tissue culture incubator.
(§6) For COR-L105 plates, cell viability was assessed through the addition of 25 μL of CellTiter Glo® (Promega, cat #G7573), a reagent which lyses cells and measures total adenosine triphosphate (ATP) content. Plates were incubated at room temperature for 10 minutes to stabilize luminescent signals prior to reading with a luminescence reader (EnVision Multilabel Plate Reader, PerkinElmer). For NCI-H1650 plates, cell viability was assessed through the addition of 40 μL of CellTiter Glo® 3D Cell Viability Assay substrate (Promega, cat #G9681), a reagent which lyses cells and measures total adenosine triphosphate (ATP) content. Wells were mixed thoroughly and plates were incubated at room temperature for 30 minutes to stabilize luminescent signals prior to reading using a luminescence reader (EnVision Multilabel Plate Reader, PerkinElmer).
(§7) To evaluate the effect of the drug treatments, luminescent counts from wells containing untreated cells (100% viability) were used to normalize treated samples. A variable slope model was applied to fit a nonlinear regression curve to the data in GraphPad PRISM version 7.02 software. IC50 and Amax values were extrapolated from the resultant curves. The concentrations of treatment required to inhibit 50% of cell growth or survival (IC50) were calculated with representative IC50 values of the cell lines tested summarized in Table 11.
In general terms: In ATP-based viability assays light output follows the ATP content of the culture.

Another assay relates to NCI-H1650. Briefly: CellTiter-Glo 3D proliferation assay, NCI-H1650 spheroids. To be noted: Homo sapiens, NCI-H1650, 120 h, 5 days; for Emax: read-out: NCI-H1650 Span (Amax). As to the method:
as §1, §2, §3, §4, §5, §6, §7

The test system of assay [1] is EBC-1 lung cancer cell line. The assay can be described thus: EBC-1 cell proliferation, CellTiter-Glo assay. To be noted: Homo sapiens, 120 h; Ebc-1 cell viability, CTG assay, 5 days of treatment; read-out: CTG 5 day Ebc1 GI50. Put shortly:
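CellTiter-Glo read-out after 5-day compound treatment, normalised to untreated cells, with GI50 derived by four-parameter logistic regression. Ten concentrations spanning 0.508 nM–10 μM were added to 1000 EBC-1 cells per well the day after seeding. Assays required at least one cell doubling versus Day 0.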

Another assay addresses T1, Bcl-xL (Homo sapiens, UniProt Q07817).
T1 construct: Measured levels of Bcl-xL protein of HCT116 cells treated with the tested compounds; host or cells: HCT116
The assay can be described thus: HCT116 Bcl-xL degradation, capillary-based immunoassay (WES). To be noted: HCT116, 24 h, 9-point serial dilution. Put shortly:
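Bcl-xL protein level by capillary WES immunoassay in HCT116 lysates, as % of untreated after cofilin normalization. Compound exposure was 24 h at 10 and 100 nM and/or a 9-point series, in quadruplicate. Four-parameter fitting gave the DC50.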

Another assay deals with T2, HiBiT-tagged BCL-xL (Homo sapiens, UniProt Q07817).
T2 construct: expressed in transfected cells; host or cells: NCI-H1650 (ATCC No. CRL-5883), engineered HiBiT cell line
Briefly: NCI-H1650 BCL-xL protein levels, Nano-Glo HiBiT Lytic Detection. The settings on record: NCI-H1650 expressing HiBiT-tagged BCL-xL, overnight incubation, read-out: Bcl-xl HIBIT NCIH1650 DC50. Put shortly: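 HiBiT luminescence after cell lysis with LgBiT/furimazine reagent reported BCL-xL levels, expressed relative to untreated wells and fitted with a four-parameter logistic equation. Engineered NCI-H1650 cells were exposed overnight at 37° C to compound at final 0.508 nM-10 μM (10 points, triplicate plates).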
A general note: HiBiT is a short tag that completes a luciferase, so light tracks the accessible tagged protein.

For another assay, the system named is MOLT-4 cells. Briefly: MOLT-4 cell viability, CTG assay. To be noted: Homo sapiens, MOLT-4, 48 h. Put shortly: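 Viability read as total ATP luminescence (CTG) after 48 h compound treatment, 11 points at 5-fold spacing in triplicate, cells in RPMI 1640/10% FBS. IC50 is the concentration halving signal relative to control, four-parameter fit, averaged over at least 2 experiments.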

T1 sequence (Q07817 whole entry): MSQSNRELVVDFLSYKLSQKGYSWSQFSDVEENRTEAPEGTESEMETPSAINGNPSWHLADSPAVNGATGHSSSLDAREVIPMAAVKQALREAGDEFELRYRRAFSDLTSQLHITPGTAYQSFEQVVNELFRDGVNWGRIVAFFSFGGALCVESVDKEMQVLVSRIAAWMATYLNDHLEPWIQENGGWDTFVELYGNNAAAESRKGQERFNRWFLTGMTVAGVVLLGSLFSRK
T2 sequence (Q07817 whole entry): as above

On to `Cc1ncsc1-c1ccc(CNC(=O)[C@@H]2C[C@@H](O)CN2C(=O)[C@@H](NC(=O)C2(F)CC2)C(C)(C)C)c(OCc2ccc(CN3CCN(CC#Cc4ccc(OCCCc5sc(N6CCCc7c6nnc(Nc6nc8ccccc8s6)c7C)nc5C(=O)O)c(F)c4)CC3)cc2)c1` [Example 58, 2-(3-(benzo[d]thiazol-2-ylamino)-4-methyl-6,7-dihydropyrido [2,3-c]pyridazin-8(5H)-yl)-5-(3-(2-fluoro-4-(3-(4-(4-((2-(((2S,4R)-1-((S)-2-(1-fluorocyclopropane-1-carboxamido)-3,3-dimethylbutanoyl)-4-hydroxypyrrolidine-2-carboxamido)methyl)-5-(4-methylthiazol-5-yl)phenoxy)methyl)benzyl)piperazin-1-yl)prop-1-yn-1-yl)phenoxy)propyl)thiazole-4-carboxylic acid], for which, in the assay with COR-L105, the half-inhibitory concentration (IC50) was determined as 0.481 µM and the Emax was 85.5%. Also, in the assay on NCI-H1650, half-maximal inhibition (IC50) was put at 0.188 µM and the Emax was determined as 98.2%.
Consider `Cc1ncsc1-c1ccc(CNC(=O)[C@@H]2C[C@@H](O)CN2C(=O)[C@@H](NC(=O)C2(F)CC2)C(C)(C)C)c(OCCN(C)CC(=O)N2CCN(CC#Cc3ccc(OCCCc4sc(N5CCCc6c5nnc(Nc5nc7ccccc7s5)c6C)nc4C(=O)O)c(F)c3)CC2)c1` [Example 59, 2-(3-(benzo[d]thiazol-2-ylamino)-4-methyl-6,7-dihydropyrido [2,3-c]pyridazin-8(5H)-yl)-5-(3-(2-fluoro-4-(3-(4-(N-(2-(2-(((2S,4R)-1-((S)-2-(1-fluorocyclopropane-1-carboxamido)-3,3-dimethylbutanoyl)-4-hydroxypyrrolidine-2-carboxamido)methyl)-5-(4-methylthiazol-5-yl)phenoxy)ethyl)-N-methylglycyl)piperazin-1-yl)prop-1-yn-1-yl)phenoxy)propyl)thiazole-4-carboxylic acid], for which the IC50 in the assay on COR-L105 amounted to 2.43 µM; in the assay with NCI-H1650, 0.119 µM. For the same compound, the values for the Emax with COR-L105 and in the assay with NCI-H1650 were 105% and 77.9%, respectively.
With `Cc1ncsc1-c1ccc(CNC(=O)[C@@H]2C[C@@H](O)CN2C(=O)[C@@H](NC(=O)C2(F)CC2)C(C)(C)C)c(OCCCCCCCCN2CCN(CC#Cc3ccc(OCCCc4sc(N5CCCc6c5nnc(Nc5nc7ccccc7s5)c6C)nc4C(=O)O)c(F)c3)CC2)c1` [Example 56, 2-(3-(benzo[d]thiazol-2-ylamino)-4-methyl-6,7-dihydropyrido [2,3-c]pyridazin-8(5H)-yl)-5-(3-(2-fluoro-4-(3-(4-(8-(2-(((2S,4R)-1-((S)-2-(1-fluorocyclopropane-1-carboxamido)-3,3-dimethylbutanoyl)-4-hydroxypyrrolidine-2-carboxamido)methyl)-5-(4-methylthiazol-5-yl)phenoxy)octyl)piperazin-1-yl)prop-1-yn-1-yl)phenoxy)propyl)thiazole-4-carboxylic acid], in the assay on COR-L105, 0.473 µM corresponded to half-maximal inhibition (IC50) and the Emax stood at 82%. Moreover, in the assay on NCI-H1650, the IC50 came out at 0.11 µM and the Emax worked out at 84.2%.
Consider `Cc1ncsc1-c1ccc(CNC(=O)[C@@H]2C[C@@H](O)CN2C(=O)[C@@H](NC(=O)C2(F)CC2)C(C)(C)C)c(OCCCCCCCCCCN(C)CCOC23CC4(C)CC(C)(CC(Cn5ncc(-c6ccc(N7CCCc8c7nnc(Nc7nc9ccccc9s7)c8C)nc6C(=O)O)c5C)(C4)C2)C3)c1` [Example 73, 6-[3-(1,3-benzothiazol-2-ylamino)-4-methyl-6,7-dihydro-5H-pyrido[2,3-c]pyridazin-8-yl]-3-[1-[[3-[2-[10-[2-[[[(2S,4R)-1-[(2S)-2-[(1-fluorocyclopropanecarbonyl)amino]-3,3-dimethyl-butanoyl]-4-hydroxy-pyrrolidine-2-carbonyl]amino]methyl]-5-(4-methylthiazol-5-yl)phenoxy]decyl-methyl-amino]ethoxy]-5,7-dimethyl-1-adamantyl]methyl]-5-methyl-pyrazol-4-yl]pyridine-2-carboxylic acid], for which the GI50 in assay [1] was found to be 0.186 µM. In addition, the figures for the DC50 on Bcl-xL and at HiBiT-tagged BCL-xL were 0.00769 µM and 0.013 µM, respectively. This compound also had an IC50 in the assay on MOLT-4 cells of 0.024 µM.
On to `Cc1ncsc1-c1ccc(CNC(=O)[C@@H]2C[C@@H](O)CN2C(=O)[C@@H](NC(=O)C2(F)CC2)C(C)(C)SCCCCCCCCCCCN(C)CCOC23CC4(C)CC(C)(CC(Cn5ncc(-c6ccc(N7CCCc8c7nnc(Nc7nc9ccccc9s7)c8C)nc6C(=O)O)c5C)(C4)C2)C3)cc1` [Example 117, 6-[3-(1,3-benzothiazol-2-ylamino)-4-methyl-6,7-dihydro-5H-pyrido[2,3-c]pyridazin-8-yl]-3-[1-[[3-[2-[11-[(2R)-2-[(1-fluorocyclopropanecarbonyl)amino]-3-[(2S,4R)-4-hydroxy-2-[[4-(4-methylthiazol-5-yl)phenyl]methylcarbamoyl]pyrrolidin-1-yl]-1,1-dimethyl-3-oxo-propyl]sulfanylundecyl-methyl-amino]ethoxy]-5,7-dimethyl-1-adamantyl]methyl]-5-methyl-pyrazol-4-yl]pyridine-2-carboxylic acid], for which the GI50 in assay [1] was 0.089 µM. Also, the DC50 on Bcl-xL was 0.00117 µM; on HiBiT-tagged BCL-xL it was above 1.67 µM. The compound also gave an IC50 with MOLT-4 cells of 0.00825 µM.
Consider `Cc1ncsc1-c1ccc(CNC(=O)[C@@H]2C[C@@H](O)CN2C(=O)[C@@H](NC(=O)C2(F)CC2)C(C)(C)SCCCCCCCCCCN(C)CCOC23CC4(C)CC(C)(CC(Cn5ncc(-c6ccc(N7CCCc8c7nnc(Nc7nc9ccccc9s7)c8C)nc6C(=O)O)c5C)(C4)C2)C3)cc1` [Example 94, 6-[3-(1,3-benzothiazol-2-ylamino)-4-methyl-6,7-dihydro-5H-pyrido[2,3-c]pyridazin-8-yl]-3-[1-[[3-[2-[10-[(2R)-2-[(1-fluorocyclopropanecarbonyl)amino]-3-[(2S,4R)-4-hydroxy-2-[[4-(4-methylthiazol-5-yl)phenyl]methylcarbamoyl]pyrrolidin-1-yl]-1,1-dimethyl-3-oxo-propyl]sulfanyldecyl-methyl-amino]ethoxy]-5,7-dimethyl-1-adamantyl]methyl]-5-methyl-pyrazol-4-yl]pyridine-2-carboxylic acid], for which, in assay [1], the GI50 worked out at 0.112 µM. The values for the DC50 at Bcl-xL and at HiBiT-tagged BCL-xL were 0.00106 µM and above 1.67 µM, respectively. The compound further had a half-inhibitory concentration (IC50) with MOLT-4 cells of 0.0144 µM.

These data come from patent publication US20240376094A2, “SELECTIVE BCL-XL PROTAC COMPOUNDS AND METHODS OF USE” (Les Laboratoires Servier, priority 2021, published 2024).
